Results published in patent publication US20240165282A1, “CONFORMATIONAL CONSTRAINED SOMATOSTATIN RECEPTOR 3 PEPTIDE LIGANDS AND THEIR CONJUGATES AND USES THEREOF” (STARGET PHARMA LTD., priority 2021, published 2024).
*1 amine or outer side, *2 acyl side, *3 side chain or, on linkers, in order; H or OH if unused. Where a SMILES comes first, the peptide text is derived from it. Bridges are numbered along the chain shown (N, C = ends). [ ]: non-standard residue; d: D form. The star is where a group is joined. DOTA = O=C(O)CN1CCN(CC(=O)O)CCN(CC(=O)*)CCN(CC(=O)O)CC1; N(2-mercaptoethyl)Gly = O=C(CN(CCS[*:3])[*:1])[*:2]

What was measured:
Experiment in all cases: Cerep off-target radioligand binding
5-HT transporter (h) = biological target: T1, 5-HT transporter (h) (Homo sapiens, UniProt P31645); conditions: 1 micromolar; antagonist radioligand; read-out: % Activity: Inhibition of Control Specific Binding
T1 construct: Eurofins Cerep (contract assay)
Experimental: (§1) In this example, off-target interactions for SEQ ID NO.
(§2) The assays were performed by Eurofins Cerep (Celle 1'Evescault, France). Compound binding was calculated as a % inhibition of the binding of a radioactively labeled ligand specific for each target. Compound enzyme inhibition effect was calculated as a % inhibition of control enzyme activity. In each experiment and if applicable, the respective reference compound was tested concurrently with SEQ ID NO. 3, and the data were compared with historical values determined at Eurofins. The experiment was accepted in accordance with Eurofins validation Standard Operating Procedure. Results showing an inhibition (or stimulation for assays run in basal conditions) higher than 50% are considered to represent significant effects of the test compounds.

5-HT1A (h) = biological target: T2, 5-HT1A (h) (Homo sapiens, UniProt P08908); conditions: 1 micromolar; agonist radioligand; read-out: % Activity: Inhibition of Control Specific Binding
T2 construct: Eurofins Cerep (contract assay)
T2 sequence (P08908 whole entry): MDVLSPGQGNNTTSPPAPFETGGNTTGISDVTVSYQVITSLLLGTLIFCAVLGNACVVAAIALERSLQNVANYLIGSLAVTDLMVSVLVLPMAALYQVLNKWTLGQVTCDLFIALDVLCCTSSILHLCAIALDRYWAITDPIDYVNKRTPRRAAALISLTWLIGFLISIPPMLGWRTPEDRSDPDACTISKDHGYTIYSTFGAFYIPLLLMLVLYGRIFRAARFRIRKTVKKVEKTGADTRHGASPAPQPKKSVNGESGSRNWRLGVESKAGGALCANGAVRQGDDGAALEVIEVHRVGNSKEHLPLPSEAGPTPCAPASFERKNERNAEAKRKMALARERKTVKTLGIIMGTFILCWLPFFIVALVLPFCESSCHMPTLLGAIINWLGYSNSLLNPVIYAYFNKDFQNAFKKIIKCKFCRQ
Experimental: as §1, §2

5-HT1B (h) = biological target: T3, 5-HT1B (h) (Homo sapiens, UniProt P28222); conditions: 1 micromolar; antagonist radioligand; read-out: % Activity: Inhibition of Control Specific Binding
T3 construct: Eurofins Cerep (contract assay)
T3 sequence (P28222 whole entry): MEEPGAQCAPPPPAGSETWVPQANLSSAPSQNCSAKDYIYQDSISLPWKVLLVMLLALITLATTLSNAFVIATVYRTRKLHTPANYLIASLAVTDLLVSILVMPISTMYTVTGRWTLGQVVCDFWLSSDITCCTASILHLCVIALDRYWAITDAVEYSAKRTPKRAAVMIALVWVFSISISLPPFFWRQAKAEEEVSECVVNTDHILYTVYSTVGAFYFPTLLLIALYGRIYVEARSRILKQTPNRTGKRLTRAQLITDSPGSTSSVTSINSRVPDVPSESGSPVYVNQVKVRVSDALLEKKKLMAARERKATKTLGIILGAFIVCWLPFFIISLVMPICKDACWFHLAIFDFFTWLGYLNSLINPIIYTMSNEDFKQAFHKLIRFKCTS
Experimental: as §1, §2

5-HT2A (h) = biological target: T4, 5-HT2A (h) (Homo sapiens, UniProt P28223); conditions: 1 micromolar; agonist radioligand; read-out: % Activity: Inhibition of Control Specific Binding
T4 construct: Eurofins Cerep (contract assay)
T4 sequence (P28223 whole entry): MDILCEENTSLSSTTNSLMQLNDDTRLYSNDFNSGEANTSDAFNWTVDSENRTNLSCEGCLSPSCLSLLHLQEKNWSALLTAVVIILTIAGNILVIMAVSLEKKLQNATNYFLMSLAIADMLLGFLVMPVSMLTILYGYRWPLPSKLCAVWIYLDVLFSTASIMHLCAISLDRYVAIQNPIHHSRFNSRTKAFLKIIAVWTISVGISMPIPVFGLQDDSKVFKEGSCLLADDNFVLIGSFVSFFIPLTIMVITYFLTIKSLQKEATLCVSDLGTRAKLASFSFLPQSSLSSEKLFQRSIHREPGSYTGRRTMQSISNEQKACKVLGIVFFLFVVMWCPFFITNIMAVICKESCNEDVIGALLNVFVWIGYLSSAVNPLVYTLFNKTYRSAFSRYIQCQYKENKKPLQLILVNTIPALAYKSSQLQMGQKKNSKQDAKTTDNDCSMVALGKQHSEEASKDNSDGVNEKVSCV
Experimental: as §1, §2

5-HT2B (h) = biological target: T5, 5-HT2B (h) (Homo sapiens, UniProt P41595); conditions: 1 micromolar; agonist radioligand; read-out: % Activity: Inhibition of Control Specific Binding
T5 construct: Eurofins Cerep (contract assay)
Experimental: as §1, §2

5-HT3 (h) = biological target: T6, 5-HT3 (h) (Homo sapiens, UniProt P46098); conditions: 1 micromolar; antagonist radioligand; read-out: % Activity: Inhibition of Control Specific Binding
T6 construct: Eurofins Cerep (contract assay)
Experimental: as §1, §2

A2A (h) = A2A (h) (Homo sapiens, UniProt P29274); conditions: 1 micromolar; agonist radioligand; read-out: % Activity: Inhibition of Control Specific Binding
Experimental: as §1, §2

CB1 (h) = CB1 (h) (Homo sapiens, UniProt P21554); conditions: 1 micromolar; agonist radioligand; read-out: % Activity: Inhibition of Control Specific Binding
Experimental: as §1, §2

CB2 (h) = CB2 (h) (Homo sapiens, UniProt P34972); conditions: 1 micromolar; agonist radioligand; read-out: % Activity: Inhibition of Control Specific Binding
Experimental: as §1, §2

CCK1 (CCKA) (h) = CCK1 (CCKA) (h) (Homo sapiens, UniProt P32238); conditions: 1 micromolar; agonist radioligand; read-out: % Activity: Inhibition of Control Specific Binding
Experimental: as §1, §2

D1 (h) = D1 (h) (Homo sapiens, UniProt P21728); conditions: 1 micromolar; antagonist radioligand; read-out: % Activity: Inhibition of Control Specific Binding
Chain of D1 (h) (P21728 whole entry): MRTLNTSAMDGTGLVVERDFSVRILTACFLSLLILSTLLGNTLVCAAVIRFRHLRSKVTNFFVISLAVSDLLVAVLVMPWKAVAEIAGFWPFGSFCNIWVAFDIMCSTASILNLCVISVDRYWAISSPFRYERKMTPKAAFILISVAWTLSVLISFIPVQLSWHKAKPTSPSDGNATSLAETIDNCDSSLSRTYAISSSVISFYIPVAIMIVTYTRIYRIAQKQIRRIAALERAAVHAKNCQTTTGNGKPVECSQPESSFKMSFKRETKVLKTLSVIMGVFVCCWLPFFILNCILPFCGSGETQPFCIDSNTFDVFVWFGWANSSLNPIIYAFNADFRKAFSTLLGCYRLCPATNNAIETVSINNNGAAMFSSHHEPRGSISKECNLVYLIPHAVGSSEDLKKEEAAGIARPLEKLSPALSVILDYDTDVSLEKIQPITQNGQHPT
Experimental: as §1, §2

D2S (h) = D2S (h) (Homo sapiens, UniProt P14416); conditions: 1 micromolar; agonist radioligand; read-out: % Activity: Inhibition of Control Specific Binding
Experimental: as §1, §2

ETA (h) = ETA (h) (Homo sapiens, UniProt P25101); conditions: 1 micromolar; agonist radioligand; read-out: % Activity: Inhibition of Control Specific Binding
Experimental: as §1, §2

GR (h) = biological target: T7, GR (h) (Homo sapiens, UniProt P04150); conditions: 1 micromolar; agonist radioligand; read-out: % Activity: Inhibition of Control Specific Binding
T7 construct: Eurofins Cerep (contract assay)
Experimental: as §1, §2

H1 (h) = H1 (h) (Homo sapiens, UniProt P35367); conditions: 1 micromolar; antagonist radioligand; read-out: % Activity: Inhibition of Control Specific Binding
Experimental: as §1, §2

H2 (h) = H2 (h) (Homo sapiens, UniProt P25021); conditions: 1 micromolar; antagonist radioligand; read-out: % Activity: Inhibition of Control Specific Binding
Chain of H2 (h) (P25021 whole entry): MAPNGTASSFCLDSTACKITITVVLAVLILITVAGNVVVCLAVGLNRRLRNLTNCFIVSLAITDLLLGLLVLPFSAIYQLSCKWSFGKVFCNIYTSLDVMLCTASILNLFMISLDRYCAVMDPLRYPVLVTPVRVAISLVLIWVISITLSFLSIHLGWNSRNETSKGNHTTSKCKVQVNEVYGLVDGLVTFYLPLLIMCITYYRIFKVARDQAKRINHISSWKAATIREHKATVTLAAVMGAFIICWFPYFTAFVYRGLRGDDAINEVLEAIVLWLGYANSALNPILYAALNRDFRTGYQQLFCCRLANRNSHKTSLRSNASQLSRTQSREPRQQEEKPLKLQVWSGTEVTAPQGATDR
Experimental: as §1, §2

M1 (h) = M1 (h) (Homo sapiens, UniProt P11229); conditions: 1 micromolar; antagonist radioligand; read-out: % Activity: Inhibition of Control Specific Binding
Chain of M1 (h) (P11229 whole entry): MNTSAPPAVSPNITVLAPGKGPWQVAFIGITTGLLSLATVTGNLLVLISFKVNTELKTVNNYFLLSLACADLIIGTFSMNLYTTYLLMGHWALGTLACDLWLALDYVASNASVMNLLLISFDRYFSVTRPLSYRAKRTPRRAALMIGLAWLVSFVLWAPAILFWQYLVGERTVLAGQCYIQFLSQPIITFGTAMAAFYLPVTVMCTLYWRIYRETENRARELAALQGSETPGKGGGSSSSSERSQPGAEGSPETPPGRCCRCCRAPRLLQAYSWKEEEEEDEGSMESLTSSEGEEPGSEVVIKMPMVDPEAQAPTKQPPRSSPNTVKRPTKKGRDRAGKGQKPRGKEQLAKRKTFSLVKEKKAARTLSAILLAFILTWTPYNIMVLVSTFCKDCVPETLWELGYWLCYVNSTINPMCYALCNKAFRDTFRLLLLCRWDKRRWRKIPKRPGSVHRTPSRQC
Experimental: as §1, §2

M2 (h) = M2 (h) (Homo sapiens, UniProt P08172); conditions: 1 micromolar; antagonist radioligand; read-out: % Activity: Inhibition of Control Specific Binding
Chain of M2 (h) (P08172 whole entry): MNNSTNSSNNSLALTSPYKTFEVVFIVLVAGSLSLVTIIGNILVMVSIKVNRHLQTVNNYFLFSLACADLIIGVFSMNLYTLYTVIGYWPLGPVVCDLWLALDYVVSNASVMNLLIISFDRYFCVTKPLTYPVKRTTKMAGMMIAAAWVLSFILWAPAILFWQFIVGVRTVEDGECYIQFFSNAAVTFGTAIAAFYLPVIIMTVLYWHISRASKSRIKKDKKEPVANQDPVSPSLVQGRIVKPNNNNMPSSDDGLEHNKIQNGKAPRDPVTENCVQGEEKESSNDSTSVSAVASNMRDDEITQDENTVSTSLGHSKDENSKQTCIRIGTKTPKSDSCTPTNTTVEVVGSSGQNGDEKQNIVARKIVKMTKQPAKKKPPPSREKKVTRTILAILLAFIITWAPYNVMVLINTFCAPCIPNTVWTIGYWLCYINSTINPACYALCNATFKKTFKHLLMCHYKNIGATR
Experimental: as §1, §2

M3 (h) = M3 (h) (Homo sapiens, UniProt P20309); conditions: 1 micromolar; antagonist radioligand; read-out: % Activity: Inhibition of Control Specific Binding
Experimental: as §1, §2

[1] = biological target: N neuronal alpha 4beta 2 (h) (Homo sapiens, UniProt P17787+P43681); conditions: 1 micromolar; agonist radioligand; read-out: % Activity: Inhibition of Control Specific Binding
Experimental: as §1, §2

[2] = biological target: T8, Potassium Channel hERG (human) (Homo sapiens, UniProt Q12809); conditions: [3H] Dofetilide, read-out: % Activity: Inhibition of Control Specific Binding
T8 construct: Eurofins Cerep (contract assay)
T8 sequence (Q12809 whole entry): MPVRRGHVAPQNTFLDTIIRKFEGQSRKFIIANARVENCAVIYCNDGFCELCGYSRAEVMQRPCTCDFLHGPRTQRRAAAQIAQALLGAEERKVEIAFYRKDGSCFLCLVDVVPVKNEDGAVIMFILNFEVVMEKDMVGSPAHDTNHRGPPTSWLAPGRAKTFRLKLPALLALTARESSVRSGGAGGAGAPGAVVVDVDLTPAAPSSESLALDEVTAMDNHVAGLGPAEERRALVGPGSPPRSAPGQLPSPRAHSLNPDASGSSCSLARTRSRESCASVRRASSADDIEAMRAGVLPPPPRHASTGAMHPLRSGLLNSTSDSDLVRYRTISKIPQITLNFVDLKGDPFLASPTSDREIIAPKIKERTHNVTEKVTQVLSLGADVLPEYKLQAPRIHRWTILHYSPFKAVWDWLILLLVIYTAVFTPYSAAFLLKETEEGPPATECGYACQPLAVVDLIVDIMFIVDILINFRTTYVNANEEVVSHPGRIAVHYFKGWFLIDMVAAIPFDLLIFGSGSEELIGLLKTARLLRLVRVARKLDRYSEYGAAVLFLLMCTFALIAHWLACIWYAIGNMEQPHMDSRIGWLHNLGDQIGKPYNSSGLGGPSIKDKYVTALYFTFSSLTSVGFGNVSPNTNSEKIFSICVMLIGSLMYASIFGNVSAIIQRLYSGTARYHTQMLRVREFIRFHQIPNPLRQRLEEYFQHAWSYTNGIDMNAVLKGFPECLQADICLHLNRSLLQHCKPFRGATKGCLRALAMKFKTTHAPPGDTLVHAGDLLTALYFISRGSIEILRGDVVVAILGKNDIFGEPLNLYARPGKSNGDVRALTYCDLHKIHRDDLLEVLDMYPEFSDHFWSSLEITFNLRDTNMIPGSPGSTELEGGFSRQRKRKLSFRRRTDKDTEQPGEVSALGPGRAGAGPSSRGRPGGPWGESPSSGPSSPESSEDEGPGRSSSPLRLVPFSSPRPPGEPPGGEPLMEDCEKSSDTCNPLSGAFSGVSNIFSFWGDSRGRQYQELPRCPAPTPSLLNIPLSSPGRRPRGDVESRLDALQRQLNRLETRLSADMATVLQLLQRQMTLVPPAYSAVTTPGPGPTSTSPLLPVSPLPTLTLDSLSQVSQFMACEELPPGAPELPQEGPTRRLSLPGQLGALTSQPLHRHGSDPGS
Experimental: as §1, §2

V1a (h) = biological target: T9, V1a (h) (Homo sapiens, UniProt P37288); conditions: 1 micromolar; agonist radioligand; read-out: % Activity: Inhibition of Control Specific Binding
T9 construct: Eurofins Cerep (contract assay)
Experimental: as §1, §2

alpha 1A (h) = alpha 1A (h) (Homo sapiens, UniProt P35348); conditions: 1 micromolar; antagonist radioligand; read-out: % Activity: Inhibition of Control Specific Binding
Experimental: as §1, §2

alpha 2A (h) = alpha 2A (h) (Homo sapiens, UniProt P08913); conditions: 1 micromolar; antagonist radioligand; read-out: % Activity: Inhibition of Control Specific Binding
Experimental: as §1, §2

beta 1 (h) = beta 1 (h) (Homo sapiens, UniProt P08588); conditions: 1 micromolar; agonist radioligand; read-out: % Activity: Inhibition of Control Specific Binding
Experimental: as §1, §2

beta 2 (h) = beta 2 (h) (Homo sapiens, UniProt P07550); conditions: 1 micromolar; antagonist radioligand; read-out: % Activity: Inhibition of Control Specific Binding
Experimental: as §1, §2

delta (DOP) (h) = delta (DOP) (h) (Homo sapiens, UniProt P41143); conditions: 1 micromolar; agonist radioligand; read-out: % Activity: Inhibition of Control Specific Binding
Chain of delta (DOP) (h) (P41143 whole entry): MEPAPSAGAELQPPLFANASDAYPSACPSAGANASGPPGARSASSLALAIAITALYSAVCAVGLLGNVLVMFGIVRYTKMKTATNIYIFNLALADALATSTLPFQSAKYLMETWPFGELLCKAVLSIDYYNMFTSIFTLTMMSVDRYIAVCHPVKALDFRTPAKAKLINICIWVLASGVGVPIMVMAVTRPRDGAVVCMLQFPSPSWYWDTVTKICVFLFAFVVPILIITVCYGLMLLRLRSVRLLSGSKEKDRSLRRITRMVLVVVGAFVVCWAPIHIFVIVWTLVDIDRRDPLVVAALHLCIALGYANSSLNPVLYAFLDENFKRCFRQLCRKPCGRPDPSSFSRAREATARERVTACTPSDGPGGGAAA
Experimental: as §1, §2

dopamine transporter (h) = biological target: T10, dopamine transporter (h) (Homo sapiens, UniProt Q01959); conditions: 1 micromolar; antagonist radioligand; read-out: % Activity: Inhibition of Control Specific Binding
T10 construct: Eurofins Cerep (contract assay)
Experimental: as §1, §2

mu (MOP) (h) = biological target: T11, mu (MOP) (h) (Homo sapiens, UniProt P35372); conditions: 1 micromolar; agonist radioligand; read-out: % Activity: Inhibition of Control Specific Binding
T11 construct: Eurofins Cerep (contract assay)
T11 sequence (P35372 whole entry): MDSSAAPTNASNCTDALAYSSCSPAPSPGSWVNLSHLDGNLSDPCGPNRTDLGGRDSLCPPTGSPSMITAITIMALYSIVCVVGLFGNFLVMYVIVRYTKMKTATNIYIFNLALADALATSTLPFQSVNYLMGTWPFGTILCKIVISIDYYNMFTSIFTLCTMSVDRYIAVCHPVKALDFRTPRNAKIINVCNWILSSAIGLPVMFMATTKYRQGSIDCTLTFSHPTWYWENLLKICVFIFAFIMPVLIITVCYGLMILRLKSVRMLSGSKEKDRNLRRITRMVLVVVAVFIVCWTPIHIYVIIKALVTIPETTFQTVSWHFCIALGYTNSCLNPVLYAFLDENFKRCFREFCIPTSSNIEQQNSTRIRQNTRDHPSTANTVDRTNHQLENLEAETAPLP
Experimental: as §1, §2

[3] = biological target: T12, norepinephrine transporter (h) (Homo sapiens, UniProt P23975); conditions: 1 micromolar; antagonist radioligand; read-out: % Activity: Inhibition of Control Specific Binding
T12 construct: Eurofins Cerep (contract assay)
Experimental: as §1, §2

SMILES: C[C@@H](O)[C@@H]1NC(=O)[C@H](CCCCN)NC(=O)[C@@H](Cc2c[nH]c3ccccc23)NC(=O)[C@H](Cc2ccccc2)NC(=O)[C@@H](NC(=O)[C@H](CCCNC(=N)N)NC(=O)[C@@H](Cc2ccccc2)NC(=O)CN2CCN(CC(=O)O)CCN(CC(=O)O)CCN(CC(=O)O)CC2)CSSCCN(CC(N)=O)C(=O)[C@H](Cc2ccccc2)NC1=O [SEQ ID NO: 3, DOTA-D-Phe^1-Arg^2-Cys^3-Phe^4-D-Trp^5-Lys^6-Thr^7-Phe^8-NTEG^9-NH2 cyclo 3-9] ({DOTA}-[dF]RCF[dW]KTF[N(2-mercaptoethyl)Gly]-NH2; disulfide 3-9)
- inhibition at 1 µM (5-HT transporter (h)): -9%
- inhibition at 1 µM (5-HT1A (h)): -3%
- inhibition at 1 µM (5-HT1B (h)): 1%
- inhibition at 1 µM (5-HT2A (h)): -2%
- inhibition at 1 µM (5-HT2B (h)): -31%
- inhibition at 1 µM (5-HT3 (h)): 1%
- inhibition at 1 µM (A2A (h)): 0%
- inhibition at 1 µM (CB1 (h)): 1%
- inhibition at 1 µM (CB2 (h)): -1%
- inhibition at 1 µM (CCK1 (CCKA) (h)): -15%
- inhibition at 1 µM (D1 (h)): -1%
- inhibition at 1 µM (D2S (h)): 3%
- inhibition at 1 µM (ETA (h)): -3%
- inhibition at 1 µM (GR (h)): -10%
- inhibition at 1 µM (H1 (h)): 7%
- inhibition at 1 µM (H2 (h)): -7%
- inhibition at 1 µM (M1 (h)): -3%
- inhibition at 1 µM (M2 (h)): -4%
- inhibition at 1 µM (M3 (h)): -7%
- inhibition at 1 µM [1]: -4%
- inhibition at 1 micromolar [2]: -9%
- inhibition at 1 µM (V1a (h)): 0%
- inhibition at 1 µM (alpha 1A (h)): -1%
- inhibition at 1 µM (alpha 2A (h)): 2%
- inhibition at 1 µM (beta 1 (h)): 5%
- inhibition at 1 µM (beta 2 (h)): -6%
- inhibition at 1 µM (delta (DOP) (h)): 10%
- inhibition at 1 µM (dopamine transporter (h)): 12%
- inhibition at 1 µM (mu (MOP) (h)): 8%
- inhibition at 1 µM [3]: -10%
